system: HCT116 cells; assay: Inhibition of cancer cell proliferation (MTT, GIC50); type: cell-based; conditions: Homo sapiens, HCT-116, 48 hours incubation
Protocol: HCT116 cells derived from human colorectal cancer were used, and an effect of a biguanide derivative on the inhibition of cancer cell proliferation was confirmed by measuring a concentration value (cell growth inhibition concentration, GIC50) at which 50% of the cell growth was inhibited using a 3-(4,5-dimethylthiazol-2-yl)-2,5-diphenytetrazolium bromide (MTT) reagent.
First, HCT116 cells were put on a 96-well plate and cultured in a DMEM medium containing 10% bovine serum for 24 hours to each have cell count of approximately 5000. Subsequently, to obtain the GIC50 value of each compound, 100 μM (or 200 μM), 25 μM, 6.25 μM, 1.56 μM or 0.39 μM of the compound was treated to each culture medium and then incubated for 48 hours. To confirm living cells after treatment with the compound, MTT was added to each culture medium and further incubated for 3 hours. Generated formazane crystal was dissolved using dimethyl sulfoxide (DMSO) and absorbance of the solution was measured at 560 nm. After the 48-hour incubation, a ratio of a cell count cultured on a well plate not treated with the compound to a cell count on a well plate treated with compounds synthesized in the examples was indicated as cell viability (%) according to each administered concentration. A cell viability curve was plotted using the cell viability (%), and the calculated concentration value (GIC50) of the compound, at which 50% of the growth was inhibited was, to confirm an effect on the inhibition of cancer cell proliferation.

Compound	IC50
CCCCCNC(=N)NC(=N)N(C)C.Cl [Example 21, N1,N1-dimethyl-N5-pentyl Biguanide Hydrochloride]	> 200 µM
COC(=O)CCNC(=N)NC(=N)N(C)C.Cl [Example 22, N1,N1-dimethyl-N5-(methoxycarbonylethyl)biguanide Hydrochloride]	> 200 µM
CN(C)C(=N)NC(=N)NC1CCCCCC1.Cl [Example 23, N1,N1-dimethyl-N5-cycloheptyl Biguanide Hydrochloride]	> 200 µM
CN(C)C(=N)NC(=N)NCC1CC1.Cl [Example 24, N1,N1-dimethyl-N5-cyclopropylmethyl Biguanide Hydrochloride]	> 200 µM
CN(C)C(=N)NC(=N)NCc1ccco1.Cl [Example 26, N1,N1-dimethyl-N5-(furan-2-yl)methyl Biguanide Hydrochloride]	> 200 µM

Now from value to molecule:

IC50	Compound
17.2 µM	Cl.N=C(NCCc1ccccc1)NC(=N)NC1CCCCCC1 [Example 15, N1-(phenethyl)-N5-cycloheptyl Biguanide Hydrochloride]
> 100 µM	Cl.N=C(NCCc1ccccc1)NC(=N)NCCc1ccccc1 [Example 16, N1,N5-bis(phenethyl) Biguanide Hydrochloride]
> 200 µM	CNC(=N)NC(=N)N(C)C.Cl [Example 17, N1,N1,N5-trimethyl Biguanide Hydrochloride]
> 200 µM	CCCCNC(=N)NC(=N)N(C)C.Cl [Example 18, N1,N1-dimethyl-N5-butyl Biguanide Hydrochloride]
> 200 µM	CCC(C)NC(=N)NC(=N)N(C)C.Cl (stereo not drawn) [Example 19, N1,N1-dimethyl-N5-(butane-2-yl) Biguanide Hydrochloride]
> 200 µM	CN(C)C(=N)NC(=N)NC(C)(C)C.Cl [Example 20, N1,N1-dimethyl-N5-t-butyl Biguanide Hydrochloride]
> 100 µM	CN(C)C(=N)NC(=N)Nc1ccc(Br)cc1.Cl [Example 25, N1,N1-dimethyl-N5-(4-bromo)phenyl Biguanide Hydrochloride]

system: 5′-AMP-activated protein kinase (AMPK); assay: AMPK activation (AMPKα Thr172 phosphorylation immunoassay) in MCF7 cells; type: cell-based, human; conditions: 50 μM compound, MCF7 cells, 24 hours
Protocol: MCF7 cells derived from human breast cancer cells were used, and an effect of a biguanide derivative on 5′-AMP-activated protein kinase (AMPK) activation was confirmed using an AMPKα immunoassay kit (Invitrogen, catalog No. KHO0651).
The MCF7 cells were put on a 6-well plate and incubated in a DMEM medium containing 10% fetal bovine serum in an incubator to which 5% CO2 was supplied to have a cell count of approximately 5×10^5. 50 μM of derivatives synthesized in the examples were treated to the each culture medium, and the cells were incubated for 24 hours. Subsequently, the cells were lysed by a method presented in the operation manual of the AMPKα immunoassay kit, and 20 μg of cell lysates were yielded through protein assay. A degree of phosphorylation of an AMPKα threonine 172nd residue (Thr172) from the cell lysates were confirmed according to a method presented in the operation manual of the AMPKα immunoassay kit to thereby obtain results.
In addition, an experiment was performed in the same manner as described in Experimental Example 2 using metformin as a control group, and the results of an effect on AMPK activation were compared to the effect on AMPK activation when 1 mM metformin was treated.

Compound	AMPK Activation (phosphorylated AMPKα Thr172)
Cl.N=C(NCCc1ccccc1)NC(=N)NC1CCCCCC1 [Example 15, N1-(phenethyl)-N5-cycloheptyl Biguanide Hydrochloride]	7.0
Cl.N=C(NCCc1ccccc1)NC(=N)NCCc1ccccc1 [Example 16, N1,N5-bis(phenethyl) Biguanide Hydrochloride]	4.7
CNC(=N)NC(=N)N(C)C.Cl [Example 17, N1,N1,N5-trimethyl Biguanide Hydrochloride]	5.5
CCCCNC(=N)NC(=N)N(C)C.Cl [Example 18, N1,N1-dimethyl-N5-butyl Biguanide Hydrochloride]	4.6
CCC(C)NC(=N)NC(=N)N(C)C.Cl (stereo not drawn) [Example 19, N1,N1-dimethyl-N5-(butane-2-yl) Biguanide Hydrochloride]	3.6
CN(C)C(=N)NC(=N)NC(C)(C)C.Cl [Example 20, N1,N1-dimethyl-N5-t-butyl Biguanide Hydrochloride]	4.6
CCCCCNC(=N)NC(=N)N(C)C.Cl [Example 21, N1,N1-dimethyl-N5-pentyl Biguanide Hydrochloride]	5.6
COC(=O)CCNC(=N)NC(=N)N(C)C.Cl [Example 22, N1,N1-dimethyl-N5-(methoxycarbonylethyl)biguanide Hydrochloride]	3.2
CN(C)C(=N)NC(=N)NC1CCCCCC1.Cl [Example 23, N1,N1-dimethyl-N5-cycloheptyl Biguanide Hydrochloride]	5.4
CN(C)C(=N)NC(=N)NCC1CC1.Cl [Example 24, N1,N1-dimethyl-N5-cyclopropylmethyl Biguanide Hydrochloride]	5.1
CN(C)C(=N)NC(=N)Nc1ccc(Br)cc1.Cl [Example 25, N1,N1-dimethyl-N5-(4-bromo)phenyl Biguanide Hydrochloride]	23.1
CN(C)C(=N)NC(=N)NCc1ccco1.Cl [Example 26, N1,N1-dimethyl-N5-(furan-2-yl)methyl Biguanide Hydrochloride]	8.9

same assay, conditions: Homo sapiens, 24 h; 50 μM vs. 0 (cells without compound), MCF7 cells

Compound	fold induction at 50 µM
Cl.N=C(NCCc1ccccc1)NC(=N)NC1CCCCCC1 [Example 15, N1-(phenethyl)-N5-cycloheptyl Biguanide Hydrochloride]	1.5
Cl.N=C(NCCc1ccccc1)NC(=N)NCCc1ccccc1 [Example 16, N1,N5-bis(phenethyl) Biguanide Hydrochloride]	0.7
CNC(=N)NC(=N)N(C)C.Cl [Example 17, N1,N1,N5-trimethyl Biguanide Hydrochloride]	1.1
CCCCNC(=N)NC(=N)N(C)C.Cl [Example 18, N1,N1-dimethyl-N5-butyl Biguanide Hydrochloride]	0.9
CCC(C)NC(=N)NC(=N)N(C)C.Cl (stereo not drawn) [Example 19, N1,N1-dimethyl-N5-(butane-2-yl) Biguanide Hydrochloride]	0.7
CN(C)C(=N)NC(=N)NC(C)(C)C.Cl [Example 20, N1,N1-dimethyl-N5-t-butyl Biguanide Hydrochloride]	0.9
CCCCCNC(=N)NC(=N)N(C)C.Cl [Example 21, N1,N1-dimethyl-N5-pentyl Biguanide Hydrochloride]	1.1
COC(=O)CCNC(=N)NC(=N)N(C)C.Cl [Example 22, N1,N1-dimethyl-N5-(methoxycarbonylethyl)biguanide Hydrochloride]	0.6
CN(C)C(=N)NC(=N)NC1CCCCCC1.Cl [Example 23, N1,N1-dimethyl-N5-cycloheptyl Biguanide Hydrochloride]	1
CN(C)C(=N)NC(=N)NCC1CC1.Cl [Example 24, N1,N1-dimethyl-N5-cyclopropylmethyl Biguanide Hydrochloride]	1
CN(C)C(=N)NC(=N)Nc1ccc(Br)cc1.Cl [Example 25, N1,N1-dimethyl-N5-(4-bromo)phenyl Biguanide Hydrochloride]	4.4
CN(C)C(=N)NC(=N)NCc1ccco1.Cl [Example 26, N1,N1-dimethyl-N5-(furan-2-yl)methyl Biguanide Hydrochloride]	1.7

system: not given; assay: not given; conditions: not given

Compound	melting point
CCCCCNC(=N)NC(=N)N(C)C.Cl [Example 21, N1,N1-dimethyl-N5-pentyl Biguanide Hydrochloride]	131 to 133 °C
COC(=O)CCNC(=N)NC(=N)N(C)C.Cl [Example 22, N1,N1-dimethyl-N5-(methoxycarbonylethyl)biguanide Hydrochloride]	100 to 102 °C
CN(C)C(=N)NC(=N)NC1CCCCCC1.Cl [Example 23, N1,N1-dimethyl-N5-cycloheptyl Biguanide Hydrochloride]	132 to 133 °C
CN(C)C(=N)NC(=N)NCC1CC1.Cl [Example 24, N1,N1-dimethyl-N5-cyclopropylmethyl Biguanide Hydrochloride]	117 to 118 °C
CN(C)C(=N)NC(=N)NCc1ccco1.Cl [Example 26, N1,N1-dimethyl-N5-(furan-2-yl)methyl Biguanide Hydrochloride]	176 to 177 °C

Other lines, results leading:

melting point	Compound
135 to 137 °C	Cl.N=C(NCCc1ccccc1)NC(=N)NC1CCCCCC1 [Example 15, N1-(phenethyl)-N5-cycloheptyl Biguanide Hydrochloride]
204 to 205 °C	Cl.N=C(NCCc1ccccc1)NC(=N)NCCc1ccccc1 [Example 16, N1,N5-bis(phenethyl) Biguanide Hydrochloride]
175 to 177 °C	CNC(=N)NC(=N)N(C)C.Cl [Example 17, N1,N1,N5-trimethyl Biguanide Hydrochloride]
131 to 133 °C	CCCCNC(=N)NC(=N)N(C)C.Cl [Example 18, N1,N1-dimethyl-N5-butyl Biguanide Hydrochloride]
110 to 112 °C	CCC(C)NC(=N)NC(=N)N(C)C.Cl (stereo not drawn) [Example 19, N1,N1-dimethyl-N5-(butane-2-yl) Biguanide Hydrochloride]
186 to 187 °C	CN(C)C(=N)NC(=N)NC(C)(C)C.Cl [Example 20, N1,N1-dimethyl-N5-t-butyl Biguanide Hydrochloride]
272 to 273 °C	CN(C)C(=N)NC(=N)Nc1ccc(Br)cc1.Cl [Example 25, N1,N1-dimethyl-N5-(4-bromo)phenyl Biguanide Hydrochloride]

Source: US10376480B2, “Biguanide derivative, a preparation method thereof, and a pharmaceutical composition containing the biguanide derivative as an active ingredient” (Immunomet Therapeutics Inc., priority 2010, dated 2019)
